Reference: patent US20030138485A1, “Disintegrant” (DAIICHI PHARMACEUTICAL CO., LTD., priority 1998, published 2003)
≈ marks a conversion by molar mass, not a printed value.

What was measured:
[1] = Measurement of viscosity of a saturated aqueous solution; type: physicochemical; conditions: B-type viscometer
Experimental: (2) Measurement of Viscosity of a Saturated Aqueous Solution
A saturated aqueous solution of a sample was prepared at 37° C., and the resultant solution was filtered by use of a membrane filter. The viscosity of the solution was measured by use of the resultant filtrate at 37° C. by means of a B-type viscometer.

physchem = conditions: water
[2] = Increase in weight by moisture absorption; type: physicochemical; conditions: for moisture absorption (in words): 25° C., relative humidity 75%, seven days, Table 2; for increase in weight by moisture absorption: sample stored 25° C., 75% open air, 7 days
Experimental: (7) Increase in Weight by Moisture Absorption
A sample tablet was weighed before and after moisture absorption, and the increase in weight of the tablet by moisture absorption (%) was calculated.
In test Example 2, erythritol and trehalose (in the form of hydrous crystals, products of Hayashibara Shoji Inc.) and xylitol and maltose (in the form of anhydrous crystals, products of Nihon Shokuhin Kako Co., Ltd.) were stored for seven days at a temperature of 25° C. and a relative humidity of 75%. Thereafter, each of these was subjected to measurement of increase in weight by moisture absorption (%). In Reference Example 2, the increases in weight by moisture absorption (%) of cornstarch, low substituted hydroxypropylcellulose, carmellose, carmellose calcium, and carmellose sodium were measured in the same manner as in Test Example 2. These compounds had been dried in a drier at 80° C. for one hour, and then employed as samples.

[3] = general description; cited from earlier work

Viscosity (37° C.) [1]	solubility thermodynamic (physchem) [mg/mL]	moisture absorption (in words) [2]	increase in weight by moisture absorption [2] [%]	SMILES	heat of dissolution [3] [cal/g]	hygroscopicity (in words) [3]	solubility in water (in words) [3]
1.6 mPa · s	240 (≈ 1320 mM)	–	–	OC[C@@H](O)[C@@H](O)[C@H](O)[C@H](O)CO [D-Mannitol, reference compound]	–	–	–
2090 or more mPa · s	–	–	–	OC[C@@H](O)[C@@H](O)[C@H](O)[C@@H](O)CO [D-Sorbitol, reference compound]	–	–	–
3.5 mPa · s	450 (≈ 3680 mM)	absorb little moisture	0.03	OC[C@@H](O)[C@@H](O)CO [Erythritol]	-42.9	not hygroscopic	easily dissolved in water
218 mPa · s	–	–	–	OC[C@@H](O)[C@@H](O[C@@H]1O[C@H](CO)[C@H](O)[C@H](O)[C@H]1O)[C@H](O)[C@@H](O)CO [Hydrogenated lactose, reference compound]	–	–	–
37 mPa · s	740 (≈ 4860 mM)	absorb little moisture	0.05	OC[C@@H](O)[C@H](O)[C@@H](O)CO [Xylitol]	-35	slightly hygroscopic	very easily dissolved in water

Further lines, the compound ahead of its results:

SMILES	Viscosity (37° C.) [1]	solubility thermodynamic (physchem) [mg/mL]	moisture absorption (in words) [2]	increase in weight by moisture absorption [2] [%]	heat of dissolution [3] [cal/g]	hygroscopicity (in words) [3]	solubility in water (in words) [3]
OC[C@H]1O[C@@H](O[C@H]2[C@H](O)[C@@H](O)C(O)O[C@@H]2CO)[C@H](O)[C@@H](O)[C@H]1O (some centres unmarked) [Lactose, reference compound]	1.7 mPa · s	–	–	–	–	–	–
OC[C@H]1O[C@H](O[C@H]2[C@H](O)[C@@H](O)[C@H](O)O[C@@H]2CO)[C@H](O)[C@@H](O)[C@@H]1O [Maltose]	38 mPa · s	–	absorb little moisture	0.06	–	–	–
CC(=O)[O-].[K+] [Potassium acetate]	30 mPa · s	–	–	–	–	–	–
CC(=O)[O-].[Na+] [Sodium acetate]	5.2 mPa · s	–	–	–	–	–	–
OC[C@H]1O[C@@](CO)(O[C@H]2O[C@H](CO)[C@@H](O)[C@H](O)[C@H]2O)[C@@H](O)[C@@H]1O [Sucrose, reference compound]	1120 mPa · s	780 (≈ 2280 mM)	–	–	–	–	–
OC[C@H]1O[C@H](O[C@H]2O[C@H](CO)[C@@H](O)[C@H](O)[C@H]2O)[C@H](O)[C@@H](O)[C@@H]1O [Trehalose]	11 mPa · s	500 (≈ 1460 mM)	absorb little moisture	0.99	–	not hygroscopic	easily dissolved in water
